Reference: publication PMC6061696 (2018)

Experiments:
[1] = test system: neomycin sensing riboswitch (NSR), wild-type (U14) (RNA, riboswitch) GGCUGCUUGUCCUUUAAUGGUCCAGUC; assay: 1H NMR imino spectra; conditions: no added monovalent ions; complex also in K+ buffers; 50 mM BisTris pH 6.3, 10 °C; ligand in slight excess; U10, U21 signals remain at 40 °C
[2] = test system: NSR U14C mutant (C14+) (RNA, riboswitch, C14 protonated at N3 in the folded complex (transcribed as ordinary C)) GGCUGCUUGUCCUCUAAUGGUCCAGUC; assay: 1H NMR imino spectra; conditions: no added monovalent ions; complex also in K+ buffers; 50 mM BisTris pH 6.3, 10 °C; ligand in slight excess

binding [1]: yes
binding [2]: yes
Structure (SMILES): NC[C@H]1O[C@H](O[C@H]2[C@H](O[C@@H]3O[C@H](CO)[C@@H](O)[C@H]3O)[C@@H](O)[C@H](N)C[C@@H]2N)[C@H](N)[C@@H](O)[C@@H]1O
